Experimental data taken from PMC5431432, “Low-basicity 5-HT7 Receptor Agonists Synthesized Using the van Leusen Multicomponent Protocol” (Scientific Reports, 2017).
Entries after “also recorded” stand apart in the source; their conditions may differ.

Target: CYP3A4 (Homo sapiens, UniProt P08684)
Test: biochemical
Details: not given

Chain of CYP3A4 (P08684 whole entry): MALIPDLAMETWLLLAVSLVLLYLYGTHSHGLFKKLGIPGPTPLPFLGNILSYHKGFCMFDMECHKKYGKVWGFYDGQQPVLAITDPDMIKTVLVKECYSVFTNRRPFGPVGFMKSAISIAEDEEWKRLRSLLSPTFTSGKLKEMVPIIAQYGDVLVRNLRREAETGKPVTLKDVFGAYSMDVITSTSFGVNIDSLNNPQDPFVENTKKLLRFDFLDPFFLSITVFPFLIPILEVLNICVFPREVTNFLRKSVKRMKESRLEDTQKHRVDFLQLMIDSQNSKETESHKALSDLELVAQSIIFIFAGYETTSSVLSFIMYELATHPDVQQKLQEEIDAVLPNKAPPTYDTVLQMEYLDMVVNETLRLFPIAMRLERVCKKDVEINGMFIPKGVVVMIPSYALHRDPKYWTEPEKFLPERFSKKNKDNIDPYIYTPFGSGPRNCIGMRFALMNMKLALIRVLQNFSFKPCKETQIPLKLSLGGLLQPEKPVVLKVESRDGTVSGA

| Structure (SMILES) | IC50 |
| --- | --- |
| CCn1cncc1-c1c[nH]c2ccc(I)cc12 [1o, 3-(1-ethyl-1H-imidazol-5-yl)-5-iodo-1H-indole] | 0.17 µM |

Target: human serotonin 5-HT6R (Homo sapiens, UniProt P50406)
Test: Radioligand binding, [3H]-LSD displacement
Details: not given

Chain of human serotonin 5-HT6R (P50406 whole entry): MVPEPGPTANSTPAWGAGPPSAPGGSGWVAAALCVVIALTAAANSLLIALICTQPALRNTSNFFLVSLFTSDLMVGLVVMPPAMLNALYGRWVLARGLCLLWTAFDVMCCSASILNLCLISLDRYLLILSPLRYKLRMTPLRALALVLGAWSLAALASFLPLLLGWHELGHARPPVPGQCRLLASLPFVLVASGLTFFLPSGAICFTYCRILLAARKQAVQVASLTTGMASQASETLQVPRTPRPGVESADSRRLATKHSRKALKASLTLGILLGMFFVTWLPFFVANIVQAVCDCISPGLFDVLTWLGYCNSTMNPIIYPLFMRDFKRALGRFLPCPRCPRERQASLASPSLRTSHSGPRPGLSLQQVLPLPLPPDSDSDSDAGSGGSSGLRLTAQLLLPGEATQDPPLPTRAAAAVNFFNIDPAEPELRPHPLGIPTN

| Structure (SMILES) | Ki |
| --- | --- |
| Cn1cc(CCN)c2ccccc21 [1-methyltryptamine, reference compound] | 3.62 µM |
| Cc1ccc2[nH]cc(CCN)c2c1 [5-methyltryptamine, reference compound] | 0.327 µM |
| NCCc1c[nH]c2ccc(Cl)cc12 [5-chlorotryptamine, reference compound] | 0.038 µM |

Target: human 5-HT7 receptor (Homo sapiens, UniProt P34969)
Test: Functional assay, cAMP production (TR-FRET) in HEK293 cells overexpressing 5-HT7R
Assay type: cell-based
Details: not given

Chain of human 5-HT7 receptor (P34969 1-432 limits assumed): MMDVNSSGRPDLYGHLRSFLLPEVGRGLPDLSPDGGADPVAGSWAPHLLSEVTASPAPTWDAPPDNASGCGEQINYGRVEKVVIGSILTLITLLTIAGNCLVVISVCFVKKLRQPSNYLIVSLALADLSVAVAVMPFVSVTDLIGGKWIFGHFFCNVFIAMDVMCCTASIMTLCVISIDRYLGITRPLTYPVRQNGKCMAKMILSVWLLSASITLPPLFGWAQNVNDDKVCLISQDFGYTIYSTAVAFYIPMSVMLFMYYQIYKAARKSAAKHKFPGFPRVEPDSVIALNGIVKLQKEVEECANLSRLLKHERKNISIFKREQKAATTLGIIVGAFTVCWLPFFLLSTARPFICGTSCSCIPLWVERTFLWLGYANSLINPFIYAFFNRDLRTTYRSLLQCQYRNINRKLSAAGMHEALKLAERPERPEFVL

| Structure (SMILES) | function at the human 5-HT7 receptor |
| --- | --- |
| CCn1cncc1-c1c[nH]c2ccc(I)cc12 [1o, 3-(1-ethyl-1H-imidazol-5-yl)-5-iodo-1H-indole] | full agonists |

Same assay, conditions: hydrochloride salts

| Structure (SMILES) | EC50 |
| --- | --- |
| CCn1cncc1-c1c[nH]c2ccc(I)cc12 [1o, 3-(1-ethyl-1H-imidazol-5-yl)-5-iodo-1H-indole] | 0.019 µM |

System: HEK-293 cells
Test: MTS cytotoxicity assay HEK-293
Assay type: cell-based, human
Details: 72 h incubation, 0.1–100 μM
Description: (§1) The cell line was cultured in Dulbecco’s Modified Eagle’s Medium DMEM (Gibco) with 10% fetal bovine
(§2) The cells were cultured in Modified Eagle’s Medium
(§3) MEM with 100 mg/ml streptomycin and 100 U/ml penicillin, 1%, Non Essential Amino Acids (NEAA) and
(§4) solutions of examined compounds in DMSO were diluted into fresh growth medium and added into the
(§5) microplates at the final concentrations 0.1 μM – 100 μM. The well-known cytostatic compound
(§6) doxorubicin (DX) 1 μM was used as a positive control for both cell lines. Additionally, carbonyl cyanide
(§7) 3-chlorophenylhydrazone (CCCP) 10 μM was used as positive control mitochondrial toxin for hepatocytes.
(§8) Proliferation Assay, Promega) was added to the each well and the cells were incubated under the same
(§9) conditions for 4 h. The absorbance of the samples was measured using a microplate reader (PerkinElmer) at

| Structure (SMILES) | cell viability in words, HEK-293 |
| --- | --- |
| CCn1cncc1-c1c[nH]c2ccc(I)cc12 [1o, 3-(1-ethyl-1H-imidazol-5-yl)-5-iodo-1H-indole] | toxic for the cells only in the highest concentration (100 μM) |

Target: T1, 5-HT1B (Homo sapiens, UniProt P28222)
T1 construct: Eurofins Cerep (contract screen)
Test: Eurofins Cerep binding screen 5-HT1B
Details: 10^−6 M; read-out: % Inhibition of control binding 5-HT1B

T1 sequence (P28222 whole entry, species assumed): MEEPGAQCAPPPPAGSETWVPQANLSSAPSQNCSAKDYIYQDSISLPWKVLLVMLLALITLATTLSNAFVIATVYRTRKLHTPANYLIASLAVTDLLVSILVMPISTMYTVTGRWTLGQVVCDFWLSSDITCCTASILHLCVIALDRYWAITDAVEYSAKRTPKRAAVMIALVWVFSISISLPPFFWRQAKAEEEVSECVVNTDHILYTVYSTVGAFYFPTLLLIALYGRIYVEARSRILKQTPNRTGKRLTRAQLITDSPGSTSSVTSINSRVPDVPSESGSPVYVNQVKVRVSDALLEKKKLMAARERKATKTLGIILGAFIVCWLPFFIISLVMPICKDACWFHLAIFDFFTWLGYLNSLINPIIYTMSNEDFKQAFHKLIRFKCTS

| Structure (SMILES) | inhibition at 1 µM |
| --- | --- |
| CCn1cncc1-c1c[nH]c2ccc(I)cc12 [1o, 3-(1-ethyl-1H-imidazol-5-yl)-5-iodo-1H-indole] | 40% |

Target: T2, 5-HT2B (Homo sapiens, UniProt P41595)
T2 construct: Eurofins Cerep (contract screen)
Test: Eurofins Cerep binding screen 5-HT2B
Details: 10^−6 M (1 µM); read-out: % Inhibition of control binding 5-HT2B

T2 sequence (P41595 whole entry, species assumed): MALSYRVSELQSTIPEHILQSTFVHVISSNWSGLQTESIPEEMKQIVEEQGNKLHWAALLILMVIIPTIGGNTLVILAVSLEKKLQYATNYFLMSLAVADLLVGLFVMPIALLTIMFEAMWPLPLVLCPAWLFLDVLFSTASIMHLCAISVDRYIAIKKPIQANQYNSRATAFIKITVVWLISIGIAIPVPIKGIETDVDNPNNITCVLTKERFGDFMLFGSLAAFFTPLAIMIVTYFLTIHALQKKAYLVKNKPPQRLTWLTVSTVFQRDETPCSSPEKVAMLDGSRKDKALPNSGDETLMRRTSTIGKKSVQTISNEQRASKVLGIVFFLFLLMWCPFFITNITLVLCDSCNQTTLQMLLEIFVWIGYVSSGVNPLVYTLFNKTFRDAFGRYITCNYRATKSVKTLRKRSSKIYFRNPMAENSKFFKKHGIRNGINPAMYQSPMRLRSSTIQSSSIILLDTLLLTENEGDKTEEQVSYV

| Structure (SMILES) | inhibition at 1 µM |
| --- | --- |
| CCn1cncc1-c1c[nH]c2ccc(I)cc12 [1o, 3-(1-ethyl-1H-imidazol-5-yl)-5-iodo-1H-indole] | 87% |

Same assay, conditions: 10^−8 M (10 nM); read-out: % Inhibition of control binding 5-HT2B

| Structure (SMILES) | inhibition at 0.01 µM |
| --- | --- |
| CCn1cncc1-c1c[nH]c2ccc(I)cc12 [1o, 3-(1-ethyl-1H-imidazol-5-yl)-5-iodo-1H-indole] | 7% |

System: HepG2 cells
Test: MTS cytotoxicity assay HepG2
Assay type: cell-based
Details: 72 h incubation, 0.1–100 μM
Description: as §1, §2, §3, §4, §5, §6, §7, §8, §9

| Structure (SMILES) | cell viability in words, HepG2 |
| --- | --- |
| CCn1cncc1-c1c[nH]c2ccc(I)cc12 [1o, 3-(1-ethyl-1H-imidazol-5-yl)-5-iodo-1H-indole] | toxic for the cells only in the highest concentration (100 μM) |

Target: T3, 5-HT5A (Homo sapiens, UniProt P47898)
T3 construct: Eurofins Cerep (contract screen)
Test: Eurofins Cerep binding screen 5-HT5A
Details: 10^−6 M; read-out: % Inhibition of control binding 5-HT5A

T3 sequence (P47898 whole entry, species assumed): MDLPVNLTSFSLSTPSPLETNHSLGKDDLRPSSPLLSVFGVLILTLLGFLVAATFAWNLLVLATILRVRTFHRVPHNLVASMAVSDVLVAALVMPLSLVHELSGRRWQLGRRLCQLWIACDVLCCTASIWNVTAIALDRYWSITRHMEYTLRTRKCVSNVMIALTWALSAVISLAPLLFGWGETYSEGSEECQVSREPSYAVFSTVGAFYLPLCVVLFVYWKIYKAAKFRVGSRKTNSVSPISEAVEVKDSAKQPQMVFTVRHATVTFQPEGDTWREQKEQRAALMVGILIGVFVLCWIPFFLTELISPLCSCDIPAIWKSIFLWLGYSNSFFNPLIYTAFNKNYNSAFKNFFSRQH

| Structure (SMILES) | inhibition at 1 µM |
| --- | --- |
| CCn1cncc1-c1c[nH]c2ccc(I)cc12 [1o, 3-(1-ethyl-1H-imidazol-5-yl)-5-iodo-1H-indole] | 7% |

System: MK-801 induced impairment in novel object recognition
Test: Novel object recognition test, reversal of MK-801 induced impairment
Set-up: species or system Albino Swiss mice
Details: mouse, in vivo
Description: The experiment was conducted on Albino Swiss mice (see Supporting Information).
trained and tested in a black, plastic, open field (50 × 30 cm, 35 cm high) with the floor divided into 20-cm
The open field was in a dark room illuminated only by a 25 W bulb. On the first day
(adaptation) the animals were allowed to explore the open field for 10 min. On the next day (training, T1) the
animals were administered the tested drugs, placed in the apparatus and allowed to explore two identical
objects (cylindrical objects with walls painted white, 7 cm in diameter, 11 cm high) for the time required to
complete 15 s of exploration of either object. For the retention trial (T2) conducted one h later, one of the
objects presented in T1 was replaced with a novel object (a prism-shaped object with walls painted black,
5 cm wide, 14 cm high). The duration of exploration of each object (i.e., sitting in close proximity to the
objects or sniffing or touching them) during 5 min time was video recorded and measured separately by a
trained observer. All drugs were administered before the training (T1) session.

| Structure (SMILES) | reversal of MK-801 induced disruption in novel object recognition |
| --- | --- |
| CCn1cncc1-c1c[nH]c2ccc(I)cc12 [1o, 3-(1-ethyl-1H-imidazol-5-yl)-5-iodo-1H-indole] | active; also recorded: dose-dependently reversed MK-801-induced disruption in novel object recognition; also recorded: reversed MK-801 induced novel object recognition impairment |

Target: T4, human serotonin 5-HT2A receptor (Homo sapiens, UniProt P28223)
T4 construct: host or cells: CHO-K1
Test: Radioligand binding, [3H]-ketanserin displacement
Details: not given

T4 sequence (P28223 whole entry): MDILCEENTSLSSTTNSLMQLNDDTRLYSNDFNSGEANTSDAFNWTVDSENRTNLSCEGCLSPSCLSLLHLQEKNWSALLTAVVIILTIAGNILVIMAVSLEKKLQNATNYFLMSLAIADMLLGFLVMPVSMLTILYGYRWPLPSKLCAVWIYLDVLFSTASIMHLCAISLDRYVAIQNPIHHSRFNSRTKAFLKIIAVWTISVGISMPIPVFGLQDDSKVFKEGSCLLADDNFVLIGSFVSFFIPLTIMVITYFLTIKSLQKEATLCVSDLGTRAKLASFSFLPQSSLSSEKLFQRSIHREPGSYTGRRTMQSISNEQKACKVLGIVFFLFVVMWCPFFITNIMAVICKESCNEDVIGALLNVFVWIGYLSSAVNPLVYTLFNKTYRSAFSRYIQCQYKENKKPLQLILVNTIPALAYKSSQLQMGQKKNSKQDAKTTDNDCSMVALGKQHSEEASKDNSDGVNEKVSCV

| Structure (SMILES) | Ki |
| --- | --- |
| Cn1cc(CCN)c2ccccc21 [1-methyltryptamine, reference compound] | 6.59 µM |
| Cc1ccc2[nH]cc(CCN)c2c1 [5-methyltryptamine, reference compound] | 2.28 µM |
| NCCc1c[nH]c2ccc(Cl)cc12 [5-chlorotryptamine, reference compound] | 0.317 µM |

System: not listed separately
Test: Metabolic stability in human liver microsomes
Assay type: in vitro ADME
Details: human, read-out: Clint, metabolic clearance
Description: The in vitro evaluation of metabolic stability was performed by using human liver microsomes
(HLMs) (Sigma-Aldrich, St. Louis, MO, USA). The reaction mixtures consisted of 50 μM of tested
compounds with microsomes (1 mg/ml) in 10 mM tris-HCl buffer.
preincubation, the 50 µL of NADPH Regeneration System (Promega, Madison, WI, USA) was
added to initiate the reaction. The reactions were terminated by the addition of the cold methanol
The mixtures were centrifuged
The course of reaction was followed by using the
analyte/IS peak height ratio values.
Mass spectra were recorded on a UPLC-MS/MS system consisted of a Waters ACQUITY® UPLC® (Waters Corporation, Milford, MA, USA) coupled to a Waters TQD mass spectrometer
(electrospray ionization mode ESI-tandem quadrupole). Chromatographic separations were carried
particle size, equipped with Acquity UPLC BEH C18 VanGuard pre-column; 2.1 × 5 mm, and
The column was maintained at 40 °C, and eluted under gradient conditions
acid (0.1%, v/v); eluent B: acetonitrile/formic acid (0.1%, v/v). Chromatograms were made using
sampling rate 20 points/s. MS detection settings of Waters TQD mass spectrometer were as
600 L h−1, cone gas flow 100 L h−1, capillary potential 3.00 kV, cone potential 40 V. Nitrogen was
used for both nebulizing and drying gas. The data were obtained in a scan mode ranging from 50 to
2000 m/z in time 1.0 s intervals. Data acquisition software was MassLynx V 4.1 (Waters). The

| Structure (SMILES) | CLint scaled at 50 μM |
| --- | --- |
| CCn1cncc1-c1c[nH]c2ccc(I)cc12 [1o, 3-(1-ethyl-1H-imidazol-5-yl)-5-iodo-1H-indole] | 6.3 mL/min/kg |

Target: human dopamine D2LR (Homo sapiens, UniProt P14416)
Test: Radioligand binding, [3H]-raclopride displacement
Details: not given

Chain of human dopamine D2LR (P14416 whole entry): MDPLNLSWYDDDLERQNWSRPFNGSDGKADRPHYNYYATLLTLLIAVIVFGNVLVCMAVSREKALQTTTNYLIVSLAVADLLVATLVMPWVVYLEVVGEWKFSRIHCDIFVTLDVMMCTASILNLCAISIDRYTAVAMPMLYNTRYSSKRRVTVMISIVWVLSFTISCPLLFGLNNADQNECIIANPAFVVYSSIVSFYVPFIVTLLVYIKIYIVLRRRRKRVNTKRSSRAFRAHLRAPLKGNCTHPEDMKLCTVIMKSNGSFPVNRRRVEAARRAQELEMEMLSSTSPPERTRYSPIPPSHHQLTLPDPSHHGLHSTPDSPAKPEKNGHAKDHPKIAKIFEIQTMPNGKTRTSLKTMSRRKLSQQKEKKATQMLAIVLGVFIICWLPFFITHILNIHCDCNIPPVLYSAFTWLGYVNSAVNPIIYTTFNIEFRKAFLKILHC

| Structure (SMILES) | Ki |
| --- | --- |
| Cn1cc(CCN)c2ccccc21 [1-methyltryptamine, reference compound] | 6.54 µM |
| Cc1ccc2[nH]cc(CCN)c2c1 [5-methyltryptamine, reference compound] | > 10 µM |
| NCCc1c[nH]c2ccc(Cl)cc12 [5-chlorotryptamine, reference compound] | 2.44 µM |

Target: T5, human serotonin 5-HT1AR (Homo sapiens, UniProt P08908)
T5 sequence (P08908 1-422): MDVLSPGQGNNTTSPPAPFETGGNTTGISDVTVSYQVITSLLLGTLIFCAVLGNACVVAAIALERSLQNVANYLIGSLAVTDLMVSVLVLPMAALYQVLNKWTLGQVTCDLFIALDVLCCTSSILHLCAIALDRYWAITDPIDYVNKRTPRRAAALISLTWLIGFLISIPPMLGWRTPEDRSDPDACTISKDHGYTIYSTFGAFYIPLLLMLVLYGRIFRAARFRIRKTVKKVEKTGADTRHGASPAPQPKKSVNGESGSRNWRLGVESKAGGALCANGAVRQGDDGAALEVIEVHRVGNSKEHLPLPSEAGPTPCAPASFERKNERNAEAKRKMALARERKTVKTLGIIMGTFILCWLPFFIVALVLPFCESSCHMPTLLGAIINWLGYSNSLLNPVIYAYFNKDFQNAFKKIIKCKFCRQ
Test: Radioligand binding, [3H]-8-OH-DPAT displacement
Details: not given

| Structure (SMILES) | Ki |
| --- | --- |
| Cn1cc(CCN)c2ccccc21 [1-methyltryptamine, reference compound] | 2.39 µM |
| Cc1ccc2[nH]cc(CCN)c2c1 [5-methyltryptamine, reference compound] | 0.039 µM |
| NCCc1c[nH]c2ccc(Cl)cc12 [5-chlorotryptamine, reference compound] | 0.016 µM |

System: not listed separately
Test: Water solubility (statement)
Assay type: physicochemical
Details: not given

| Structure (SMILES) | water solubility in words |
| --- | --- |
| CCn1cncc1-c1c[nH]c2ccc(I)cc12 [1o, 3-(1-ethyl-1H-imidazol-5-yl)-5-iodo-1H-indole] | water soluble |

Target: human serotonin 5-HT7bR (Homo sapiens, UniProt P34969)
Test: Radioligand binding, [3H]-5-CT displacement
Details: not given

Chain of human serotonin 5-HT7bR (P34969 1-432 limits assumed): as the sequence (P34969 1-432 limits assumed) above

| Structure (SMILES) | Ki | selectivity over 5-HT1AR |
| --- | --- | --- |
| Cn1cc(CCN)c2ccccc21 [1-methyltryptamine, reference compound] | 4.83 µM | – |
| CCn1cncc1-c1c[nH]c2ccc(I)cc12 [1o, 3-(1-ethyl-1H-imidazol-5-yl)-5-iodo-1H-indole] | – | 176 fold |
| Cc1ccc2[nH]cc(CCN)c2c1 [5-methyltryptamine, reference compound] | 0.026 µM | – |
| NCCc1c[nH]c2ccc(Cl)cc12 [5-chlorotryptamine, reference compound] | 0.016 µM | – |

Same assay, conditions: read-out: K i (5-HT7R)

| Structure (SMILES) | Ki |
| --- | --- |
| CCn1cncc1-c1c[nH]c2ccc(I)cc12 [1o, 3-(1-ethyl-1H-imidazol-5-yl)-5-iodo-1H-indole] | 0.006 µM |

System: not listed separately
Test: Pharmacokinetics after i.p. administration in mice
Assay type: in vivo, CD-1 mice
Details: 1o 5 mg/kg i.p. vs LP-44 10 mg/kg i.p.
Description: A group of 32 adult male mice (CD-1, 18-21 g) were used in the experiment.
During the habituation period the groups of 4 mice were kept in a plastic cage (252 mm x 167 cm x
140 cm) at a controlled room temperature (22±2°C), humidity (55±10%), full spectrum cold white light
access to standard laboratory pellet and tap water.
administered by an intraperitoneal (i.p.) administration at a dose of 5 mg/kg. Blood samples were collected
administration. The blood and brain samples were collected under general anesthesia induced by i.p.
injections of 50 mg/kg ketamine plus 8 mg/kg xylazine. The blood samples were taken into heparinized
tubes, immediately centrifuged at 3500 rpm for 10 min and plasma was collected. The brain and plasma
samples were immediately frozen at - 80°C for LC/MS/MS analysis.
Pharmacokinetic parameters were calculated by a non-compartmental approach from the average
elimination rate constant (λz) was calculated by linear regression of time versus log concentration. Next, the
area under the mean serum and tissue concentration versus time curve (AUC0→t) was estimated using the
log-linear trapezoidal rule (Eq. 1), where Cn is the concentration of last sampling of each compound.
Area under the first-moment curve (AUMC0→t) was estimated by calculation of the total area under the
first-moment curve using the equation 2, where tn is the time of last sampling.
Mean residence time (MRT) was calculated as:
Total clearance (ClT) was calculated as:
Volume of distribution (Vd) was calculated as:
The quantification of studied compound in plasma and brain samples was done using UPLC Agilent 1100
system (Agilent Technologies, Waldbronn, Germany) coupled to the triple quadrupole mass spectrometer
API 2000 (ABSciex, Framingham, Massachusetts, USA) equipped with electrospray ion source. After
Milford, Massachusetts, USA) analytical column. The mobile phase consisted of ACN with 0.1% formic
acid (A) and water with 0.1% formic acid (B) were delivered in gradient elution started with 90% of eluent
B, increasing during 2 min to 90% of eluent A, maintained to 3 min, and then returned during 5 min to 90% of
eluent B, and maintained 90% of eluent B during 5 min at a flow rate of 300 µL/min. The total time of
analysis was 10 min. Electrospray ionization process was performed in positive ionization and the data
(nebivolol). The ion spray source settings were as follows: spray voltage: 5.5 kV, heater temperature:
400°C, curtain gas: 20 psi, source gas 1: 40 psi, source gas 2: 20 psi.

| Structure (SMILES) | blood/plasma ratio compared to LP-44 |
| --- | --- |
| CCn1cncc1-c1c[nH]c2ccc(I)cc12 [1o, 3-(1-ethyl-1H-imidazol-5-yl)-5-iodo-1H-indole] | three-fold higher |

Same assay, conditions: 1o 5 mg/kg i.p. vs LP-211 10 mg/kg i.p.

| Structure (SMILES) | brain/plasma ratio compared to LP-211 |
| --- | --- |
| CCn1cncc1-c1c[nH]c2ccc(I)cc12 [1o, 3-(1-ethyl-1H-imidazol-5-yl)-5-iodo-1H-indole] | 9 times |

Same assay, conditions: i.p. 5 mg/kg

| Structure (SMILES) | Cmax brain | Cmax brain (molar) | maximum plasma concentration | maximum plasma concentration (molar) | time in which half of the compound was eliminated from the body |
| --- | --- | --- | --- | --- | --- |
| CCn1cncc1-c1c[nH]c2ccc(I)cc12 [1o, 3-(1-ethyl-1H-imidazol-5-yl)-5-iodo-1H-indole] | 2723 ng/g | approx. 8 μM | 749 ng/mL | ~ 2.2 μM | ≤ 90 min |

Same assay, conditions: i.p. 5 mg/kg, brain

| Structure (SMILES) | t0.5 brain |
| --- | --- |
| CCn1cncc1-c1c[nH]c2ccc(I)cc12 [1o, 3-(1-ethyl-1H-imidazol-5-yl)-5-iodo-1H-indole] | 130 min |

Same assay, conditions: i.p. 5 mg/kg, plasma and brain

| Structure (SMILES) | last sampling time at which measurable |
| --- | --- |
| CCn1cncc1-c1c[nH]c2ccc(I)cc12 [1o, 3-(1-ethyl-1H-imidazol-5-yl)-5-iodo-1H-indole] | 6 h |

Same assay, conditions: male, CD-1, mouse, brain, ip, i.p. 5 mg/kg, read-out: MRT brain (converted)

| Structure (SMILES) | MRT |
| --- | --- |
| CCn1cncc1-c1c[nH]c2ccc(I)cc12 [1o, 3-(1-ethyl-1H-imidazol-5-yl)-5-iodo-1H-indole] | 60 min |

Same assay, conditions: male, CD-1, mouse, brain/plasma, ip, i.p. 5 mg/kg, read-out: brain to plasma ratio

| Structure (SMILES) | Kp |
| --- | --- |
| CCn1cncc1-c1c[nH]c2ccc(I)cc12 [1o, 3-(1-ethyl-1H-imidazol-5-yl)-5-iodo-1H-indole] | 6.34 |

Same assay, conditions: male, CD-1, mouse, ip, i.p. 5 mg/kg, plasma

| Structure (SMILES) | Tmax |
| --- | --- |
| CCn1cncc1-c1c[nH]c2ccc(I)cc12 [1o, 3-(1-ethyl-1H-imidazol-5-yl)-5-iodo-1H-indole] | 15 min |

Same assay, conditions: male, CD-1, mouse, plasma, ip, i.p. 5 mg/kg

| Structure (SMILES) | Vd/F |
| --- | --- |
| CCn1cncc1-c1c[nH]c2ccc(I)cc12 [1o, 3-(1-ethyl-1H-imidazol-5-yl)-5-iodo-1H-indole] | 46.6 L/kg |

Same assay, conditions: male, CD-1, mouse, plasma, ip, i.p. 5 mg/kg, read-out: MRT plasma (converted)

| Structure (SMILES) | MRT |
| --- | --- |
| CCn1cncc1-c1c[nH]c2ccc(I)cc12 [1o, 3-(1-ethyl-1H-imidazol-5-yl)-5-iodo-1H-indole] | 27 min |
